Source: PubChem BioAssay (NCI)
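Compound exposure: 48 hours, 5 concentrations, 96-well plates. The concentration for 50% growth inhibition is given as GI50. TGI: concentration producing complete growth inhibition.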

Tests used:
Experiment in all cases: growth of human tumour cells (NCI), 48 h
CCRF-CEM leukemia = tested on: CCRF-CEM leukemia
T-47D breast = tested on: T-47D breast
HT29 colon = tested on: HT29 colon
SF-539 CNS = tested on: SF-539 CNS
LOX IMVI melanoma = tested on: LOX IMVI melanoma
PC-3 prostate = tested on: PC-3 prostate
A549 NSCLC = tested on: A549 NSCLC
HS 578T breast = tested on: HS 578T breast
UACC-62 melanoma = tested on: UACC-62 melanoma
SK-MEL-5 melanoma = tested on: SK-MEL-5 melanoma
MDA-MB-468 breast = tested on: MDA-MB-468 breast
COLO 205 colon = tested on: COLO 205 colon
SN12C renal = tested on: SN12C renal
OVCAR-3 ovarian = tested on: OVCAR-3 ovarian
HCT-15 colon = tested on: HCT-15 colon
HCT-116 colon = tested on: HCT-116 colon
A498 renal = tested on: A498 renal
NCI-H460 lung = tested on: NCI-H460 lung
SNB-19 CNS = tested on: SNB-19 CNS
MALME-3M melanoma = tested on: MALME-3M melanoma
SK-OV-3 ovarian = tested on: SK-OV-3 ovarian
K-562 leukemia = tested on: K-562 leukemia
HOP-62 NSCLC = tested on: HOP-62 NSCLC
HOP-92 NSCLC = tested on: HOP-92 NSCLC
NCI-H23 lung = tested on: NCI-H23 lung
MDA-MB-435 = tested on: MDA-MB-435
EKVX NSCLC = tested on: EKVX NSCLC
UACC-257 melanoma = tested on: UACC-257 melanoma
RPMI-8226 leukemia = tested on: RPMI-8226 leukemia
U251 CNS = tested on: U251 CNS
MOLT-4 leukemia = tested on: MOLT-4 leukemia
MCF7 breast = tested on: MCF7 breast
SK-MEL-2 melanoma = tested on: SK-MEL-2 melanoma
DU-145 prostate = tested on: DU-145 prostate
786-0 renal = tested on: 786-0 renal
SF-268 CNS = tested on: SF-268 CNS
IGROV1 ovarian = tested on: IGROV1 ovarian
SNB-75 CNS = tested on: SNB-75 CNS
OVCAR-4 ovarian = tested on: OVCAR-4 ovarian
SF-295 CNS = tested on: SF-295 CNS
TK-10 renal = tested on: TK-10 renal
OVCAR-5 ovarian = tested on: OVCAR-5 ovarian
KM12 colon = tested on: KM12 colon
NCI/ADR-RES ovarian = tested on: NCI/ADR-RES ovarian
SW-620 colon = tested on: SW-620 colon
ACHN renal = tested on: ACHN renal
CAKI-1 renal = tested on: CAKI-1 renal
NCI-H226 lung = tested on: NCI-H226 lung
OVCAR-8 ovarian = tested on: OVCAR-8 ovarian
RXF 393 renal = tested on: RXF 393 renal
M14 melanoma = tested on: M14 melanoma
HL-60(TB) leukemia = tested on: HL-60(TB) leukemia
BT-549 breast = tested on: BT-549 breast
HCC-2998 colon = tested on: HCC-2998 colon
NCI-H522 lung = tested on: NCI-H522 lung

SMILES: Clc1ccc(/C=N/Nc2ncnc3sc4c(c23)CCN(Cc2ccccc2)C4)cc1
- GI50 (CCRF-CEM leukemia): 3.51 µM
- TGI (CCRF-CEM leukemia): 25.5 µM
- GI50 (T-47D breast): 22.5 µM
- TGI (T-47D breast): > 100 µM
- GI50 (HT29 colon): 3.37 µM
- TGI (HT29 colon): 13.7 µM
- GI50 (SF-539 CNS): 4.1 µM
- TGI (SF-539 CNS): 18.2 µM
- GI50 (LOX IMVI melanoma): 2900 nM
- TGI (LOX IMVI melanoma): 9.74 µM
- GI50 (PC-3 prostate): 3.63 µM
- TGI (PC-3 prostate): 32.5 µM
- GI50 (A549 NSCLC): 12.1 µM
- TGI (A549 NSCLC): > 100 µM
- GI50 (HS 578T breast): 6.33 µM
- TGI (HS 578T breast): > 100 µM
- GI50 (UACC-62 melanoma): 30.5 µM
- TGI (UACC-62 melanoma): > 100 µM
- GI50 (SK-MEL-5 melanoma): 18.6 µM
- TGI (SK-MEL-5 melanoma): > 100 µM
- GI50 (MDA-MB-468 breast): 3.72 µM
- TGI (MDA-MB-468 breast): 15.8 µM
- GI50 (COLO 205 colon): 3.52 µM
- TGI (COLO 205 colon): 12.9 µM
- GI50 (SN12C renal): 9.09 µM
- TGI (SN12C renal): > 100 µM
- GI50 (OVCAR-3 ovarian): 2490 nM
- TGI (OVCAR-3 ovarian): 5.33 µM
- GI50 (HCT-15 colon): 4.04 µM
- TGI (HCT-15 colon): 25.2 µM
- GI50 (HCT-116 colon): 3.04 µM
- TGI (HCT-116 colon): 10.4 µM
- GI50 (A498 renal): 25.8 µM
- TGI (A498 renal): 59.2 µM
- GI50 (NCI-H460 lung): 2260 nM
- TGI (NCI-H460 lung): 4.88 µM
- GI50 (SNB-19 CNS): 6.06 µM
- TGI (SNB-19 CNS): > 100 µM
- GI50 (MALME-3M melanoma): 4.96 µM
- TGI (MALME-3M melanoma): > 100 µM
- GI50 (SK-OV-3 ovarian): 20.8 µM
- TGI (SK-OV-3 ovarian): 78.4 µM
- GI50 (K-562 leukemia): 4.16 µM
- TGI (K-562 leukemia): 54.9 µM
- GI50 (HOP-62 NSCLC): 4.8 µM
- TGI (HOP-62 NSCLC): 25.2 µM
- GI50 (HOP-92 NSCLC): 2400 nM
- TGI (HOP-92 NSCLC): 6.7 µM
- GI50 (NCI-H23 lung): 12 µM
- TGI (NCI-H23 lung): > 100 µM
- GI50 (MDA-MB-435): 7.26 µM
- TGI (MDA-MB-435): > 100 µM
- GI50 (EKVX NSCLC): 65.6 µM
- TGI (EKVX NSCLC): > 100 µM
- GI50 (UACC-257 melanoma): 9.6 µM
- TGI (UACC-257 melanoma): 76.9 µM
- GI50 (RPMI-8226 leukemia): 5.39 µM
- TGI (RPMI-8226 leukemia): 84.9 µM
- GI50 (U251 CNS): 4 µM
- TGI (U251 CNS): 16.6 µM
- GI50 (MOLT-4 leukemia): 4.53 µM
- TGI (MOLT-4 leukemia): 34.5 µM
- GI50 (MCF7 breast): 2980 nM
- TGI (MCF7 breast): 15 µM
- GI50 (SK-MEL-2 melanoma): 16 µM
- TGI (SK-MEL-2 melanoma): 42.7 µM
- GI50 (DU-145 prostate): 5.67 µM
- TGI (DU-145 prostate): > 100 µM
- GI50 (786-0 renal): 3.85 µM
- TGI (786-0 renal): 14.8 µM
- GI50 (SF-268 CNS): 8.38 µM
- TGI (SF-268 CNS): > 100 µM
- GI50 (IGROV1 ovarian): 20.1 µM
- TGI (IGROV1 ovarian): > 100 µM
- GI50 (SNB-75 CNS): 3.21 µM
- TGI (SNB-75 CNS): 41.2 µM
- GI50 (OVCAR-4 ovarian): 2760 nM
- TGI (OVCAR-4 ovarian): 7.52 µM
- GI50 (SF-295 CNS): 4.19 µM
- TGI (SF-295 CNS): 21.6 µM
- GI50 (TK-10 renal): 20.8 µM
- TGI (TK-10 renal): 41.9 µM
- GI50 (OVCAR-5 ovarian): 20.9 µM
- TGI (OVCAR-5 ovarian): > 100 µM
- GI50 (KM12 colon): 11.9 µM
- TGI (KM12 colon): > 100 µM
- GI50 (NCI/ADR-RES ovarian): 2340 nM
- TGI (NCI/ADR-RES ovarian): 5.84 µM
- GI50 (SW-620 colon): 3.85 µM
- TGI (SW-620 colon): 31.9 µM
- GI50 (ACHN renal): 15.8 µM
- TGI (ACHN renal): > 100 µM
- GI50 (CAKI-1 renal): > 100 µM
- TGI (CAKI-1 renal): > 100 µM
- GI50 (NCI-H226 lung): 2310 nM
- TGI (NCI-H226 lung): 7.41 µM
- GI50 (OVCAR-8 ovarian): 1950 nM
- TGI (OVCAR-8 ovarian): 3.99 µM
- GI50 (RXF 393 renal): 10.2 µM
- TGI (RXF 393 renal): 26.6 µM
- GI50 (M14 melanoma): 2650 nM
- TGI (M14 melanoma): 7.66 µM
- GI50 (HL-60(TB) leukemia): 5.59 µM
- TGI (HL-60(TB) leukemia): 43 µM
- GI50 (BT-549 breast): 23.4 µM
- TGI (BT-549 breast): > 100 µM
- GI50 (HCC-2998 colon): 10.7 µM
- TGI (HCC-2998 colon): > 100 µM
- GI50 (NCI-H522 lung): 23.9 µM
- TGI (NCI-H522 lung): > 100 µM
